Measured values reported in PubChem BioAssay AID330 (DTP/NCI, 2004).
“And” between values parts separate entries of the source, which are not always exact repeats. Equal values may be shown once. Toxic doses and inconclusive results are not listed. Square brackets hold non-standard residues; d marks the D form. Peptide text beside a SMILES is read from it. Ac5c = NC1(C(=O)O)CCCC1

System: P388 leukemia ip, CD2F1 mice, survival T/C
Assay: NCI In Vivo Anticancer Drug Screen. Data for tumor model P388 Leukemia (intraperitoneal) in CD2F1 (CDF1) mice
Settings: endpoint: median survival time, higher = longer survival
How it was run: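 Mice carrying the transplanted tumor received test compound or vehicle. Survival was recorded in each group, and the value is the treated-group measurement divided by that of the vehicle-treated control group.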

[1] = dose: 50.0 mg/kg/injection, schedule: Q01DX009 (ip), vehicle: saline
[2] = dose: 100.0 mg/kg/injection, schedule: Q01DX009 (ip), vehicle: saline
[3] = dose: 200.0 mg/kg/injection, schedule: Q01DX009 (ip), vehicle: saline
[4] = dose: 50.0 mg/kg/injection, schedule: Q01DX009 (ip), vehicle: saline with Tween-80
[5] = dose: 100.0 mg/kg/injection, schedule: Q01DX009 (ip), vehicle: saline with Tween-80
[6] = dose: 100.0 mg/kg/injection, schedule: Q04DX003 (ip), vehicle: saline with Tween-80
[7] = dose: 200.0 mg/kg/injection, schedule: Q04DX003 (ip), vehicle: saline with Tween-80
[8] = dose: 400.0 mg/kg/injection, schedule: Q04DX003 (ip), vehicle: saline with Tween-80
[9] = dose: 25.0 mg/kg/injection, schedule: Q01DX005 (ip), vehicle: Klucel (hydroxypropylcellulose) (HPC)
[10] = dose: 50.0 mg/kg/injection, schedule: Q01DX005 (ip), vehicle: Klucel (hydroxypropylcellulose) (HPC)
[11] = dose: 100.0 mg/kg/injection, schedule: Q01DX005 (ip), vehicle: Klucel (hydroxypropylcellulose) (HPC)
[12] = dose: 200.0 mg/kg/injection, schedule: Q01DX005 (ip), vehicle: Klucel (hydroxypropylcellulose) (HPC)
[13] = dose: 60.0 mg/kg/injection, schedule: Q01DX005 (ip), vehicle: saline with Tween-80
[14] = dose: 120.0 mg/kg/injection, schedule: Q01DX005 (ip), vehicle: saline with Tween-80
[15] = dose: 240.0 mg/kg/injection, schedule: Q01DX005 (ip), vehicle: saline with Tween-80
[16] = dose: 25.0 mg/kg/injection, schedule: Q01DX009 (ip), vehicle: saline with Tween-80
[17] = dose: 60.0 mg/kg/injection, schedule: Q01DX005 (ip), vehicle: Klucel (hydroxypropylcellulose) (HPC)
[18] = dose: 120.0 mg/kg/injection, schedule: Q01DX005 (ip), vehicle: Klucel (hydroxypropylcellulose) (HPC)
[19] = dose: 240.0 mg/kg/injection, schedule: Q01DX005 (ip), vehicle: Klucel (hydroxypropylcellulose) (HPC)
[20] = dose: 6.25 mg/kg/injection, schedule: Q01DX005 (ip), vehicle: Klucel (hydroxypropylcellulose) (HPC)
[21] = dose: 100.0 mg/kg/injection, schedule: Q01DX001 (ip), vehicle: Klucel (hydroxypropylcellulose) (HPC)
[22] = dose: 200.0 mg/kg/injection, schedule: Q01DX009 (ip), vehicle: saline with Tween-80
[23] = dose: 50.0 mg/kg/injection, schedule: Q04DX003 (ip), vehicle: saline with Tween-80
[24] = dose: 50.0 mg/kg/injection, schedule: Q01DX005 (ip), vehicle: saline with Tween-80
[25] = dose: 100.0 mg/kg/injection, schedule: Q01DX005 (ip), vehicle: saline with Tween-80

Compound: NCC(=O)NC1(C(=O)O)CCCC1 (H-Gly-[Ac5c]-OH)
- T/C (dose: 25.0 mg/kg/injection, schedule: Q01DX009 (ip), vehicle: saline): 118 % of control
- T/C [1]: 118 % of control
- T/C [2]: 122 % of control
- T/C (dose: 100.0 mg/kg/injection, schedule: Q04DX003 (ip), vehicle: saline): 95 % of control
- T/C [3]: 105 % of control
- T/C (dose: 200.0 mg/kg/injection, schedule: Q04DX003 (ip), vehicle: saline): 100 % of control
- T/C (dose: 400.0 mg/kg/injection, schedule: Q01DX009 (ip), vehicle: saline): 93 % of control
- T/C (dose: 400.0 mg/kg/injection, schedule: Q04DX003 (ip), vehicle: saline): 108 % of control

Compound: c1cnc2c(c1)Sc1ncccc1S2
- T/C [4]: 96 % of control
- T/C [5]: 92 % of control

Compound: COc1cc([N+](=O)[O-])cc(/C=C(\C)C2SC(C)(C)C(C)CN2C)c1O (configuration not stated)
- T/C [6]: 109 % of control
- T/C [7]: 103 % of control
- T/C [8]: 100 % of control

Compound: CCN1CCC(OC(=O)c2ccccc2)(c2nccc3ccccc23)CC1
- T/C [4]: 112 % of control

Compound: COC(=O)N(C)C1=CCC(C(C)(C)C)CC1 (configuration not stated)
- T/C [9]: 103 % of control
- T/C [10]: 106 % of control
- T/C [11]: 107 % of control
- T/C [12]: 105 % of control

Compound: COc1ccc(/C=N/NC(=O)C(O)c2ccccc2)cc1 (configuration not stated)
- T/C [13]: 99 % of control
- T/C [14]: 90 % of control
- T/C [15]: 91 % of control

Compound: CCCC(C#N)OC(=O)c1ccccc1 (configuration not stated)
- T/C (dose: 12.5 mg/kg/injection, schedule: Q01DX009 (ip), vehicle: saline with Tween-80): 104 % of control
- T/C [16]: 100 % of control
- T/C [4]: 104 % of control

Compound: Cc1nnc(N)c(C#N)c1C
- T/C (dose: 50.0 mg/kg/injection, schedule: Q01DX005 (ip), vehicle: saline): 95 % of control
- T/C (dose: 100.0 mg/kg/injection, schedule: Q01DX005 (ip), vehicle: saline): 104 % of control
- T/C (dose: 200.0 mg/kg/injection, schedule: Q01DX005 (ip), vehicle: saline): 93 % of control

Compound: COc1cc(-c2c(C)oc(C)c2C(C)=O)ccc1OCc1ccccc1
- T/C [17]: 92 % of control
- T/C [18]: 97 % of control
- T/C [19]: 91 % of control

Compound: NC(N)=Nc1ccc(-c2cc3cc(N=C(N)N)ccc3s2)cc1
- T/C [20]: 108 % of control
- T/C (dose: 12.5 mg/kg/injection, schedule: Q01DX005 (ip), vehicle: Klucel (hydroxypropylcellulose) (HPC)): 105 % of control
- T/C [9]: 115 % of control
- T/C [10]: 168 % of control

Compound: Cc1cc(C)c2cc(=O)oc-2c(C)c1
- T/C [21]: 100 % of control
- T/C (dose: 200.0 mg/kg/injection, schedule: Q01DX001 (ip), vehicle: Klucel (hydroxypropylcellulose) (HPC)): 103 % of control
- T/C (dose: 400.0 mg/kg/injection, schedule: Q01DX001 (ip), vehicle: Klucel (hydroxypropylcellulose) (HPC)): 100 % of control

Compound: Nc1nc(Br)c2[nH]cnc2n1
- T/C [5]: 110 % of control
- T/C [6]: 118 % of control
- T/C [22]: 120 % of control
- T/C [7]: 113 % of control
- T/C (dose: 400.0 mg/kg/injection, schedule: Q01DX009 (ip), vehicle: saline with Tween-80): 90 % of control
- T/C [8]: 109 % of control

Compound: COc1ccc(C2NC(=S)NC(C)=C2C(N)=O)cc1 (configuration not stated)
- T/C [17]: 101 % of control
- T/C [18]: 95 % of control
- T/C [19]: 96 % of control

Compound: N=C(N)c1cccc([N+](=O)[O-])c1
- T/C [1]: 98 % of control
- T/C [2]: 96 % of control

Compound: O=C(Nc1ccc(Cl)cc1)Nc1nnc2nc(C(C(=O)c3ccc(F)cc3)c3nc4nnc(NC(=O)Nc5ccc(Cl)cc5)n4[nH]c3=O)c(=O)[nH]n12
- T/C [13]: 103 % of control
- T/C [14]: 93 % of control
- T/C [15]: 86 % of control

Compound: CC(=O)NCCNC(Cc1ccccc1)C(=O)O (configuration not stated)
- T/C (dose: 25.0 mg/kg/injection, schedule: Q01DX001 (ip), vehicle: Klucel (hydroxypropylcellulose) (HPC)): 108 % of control
- T/C (dose: 50.0 mg/kg/injection, schedule: Q01DX001 (ip), vehicle: Klucel (hydroxypropylcellulose) (HPC)): 101 % of control
- T/C [21]: 100 % of control and 101 % of control

Compound: Cc1cc2nc3c(C4OCC(O)C4O)nn(-c4ccccc4)c3nc2cc1C (configuration not stated)
- T/C (dose: 3.12 mg/kg/injection, schedule: Q01DX005 (ip), vehicle: Klucel (hydroxypropylcellulose) (HPC)): 93 % of control
- T/C [20]: 88 % of control
- T/C [10]: 88 % of control
- T/C [11]: 93 % of control
- T/C [12]: 103 % of control

Compound: CC1(C)C2CC=C(CCOC(=S)S)C1C2.[Ni] (configuration not stated)
- T/C [16]: 90 % of control

Compound: O=C1NN(C(=O)c2ccccc2)C(c2ccccc2[N+](=O)[O-])c2c1c1ccccc1n2C(=O)c1ccccc1 (configuration not stated)
- T/C [10]: 97 % of control
- T/C [11]: 95 % of control
- T/C [12]: 88 % of control

Compound: CCOC(=O)/C(=C/C(C#N)=C/N(C)C)CC
- T/C [23]: 104 % of control
- T/C [6]: 95 % of control
- T/C [7]: 109 % of control

Compound: CN(C)C(=S)SSC(=S)N(C)C
- T/C (dose: 12.5 mg/kg/injection, schedule: Q01DX009 (ip), vehicle: Klucel (hydroxypropylcellulose) (HPC)): 119 % of control
- T/C (dose: 25.0 mg/kg/injection, schedule: Q01DX009 (ip), vehicle: Klucel (hydroxypropylcellulose) (HPC)): 115 % of control
- T/C (dose: 50.0 mg/kg/injection, schedule: Q01DX009 (ip), vehicle: Klucel (hydroxypropylcellulose) (HPC)): 101 % of control and 117 % of control
- T/C (dose: 100.0 mg/kg/injection, schedule: Q01DX009 (ip), vehicle: Klucel (hydroxypropylcellulose) (HPC)): 118 % of control and 90 % of control

Compound: CCCC(=O)c1ccc(C)cc1
- T/C [6]: 104 % of control
- T/C [7]: 104 % of control
- T/C [8]: 86 % of control

Compound: CCN(Cc1ccc(CN(CC)C(=O)c2sc3ccccc3c2Cl)cc1)C(=O)c1sc2ccccc2c1Cl
- T/C [1]: 101 % of control
- T/C [2]: 100 % of control
- T/C [3]: 93 % of control

Compound: CCCCCCC(O)C(CCCCCC)[Se]C (configuration not stated)
- T/C [23]: 104 % of control
- T/C [6]: 106 % of control and 115 % of control
- T/C [7]: 100 % of control

Compound: CN(C)c1nc(=[N+](C)C)ss1
- T/C [4]: 90 % of control
- T/C [5]: 100 % of control
- T/C [22]: 113 % of control

Compound: O=C1OCC/C1=C\c1ccco1
- T/C (dose: 50.0 mg/kg/injection, schedule: Q01DX005 (ip), vehicle: acetone): 119 % of control
- T/C (dose: 100.0 mg/kg/injection, schedule: Q01DX005 (ip), vehicle: acetone): 103 % of control

Compound: Fc1ccc(N/N=c2\nnc3ccc(F)cc3s2)cc1
- T/C (dose: 100.0 mg/kg/injection, schedule: Q04DX002 (ip), vehicle: saline with Tween-80): 102 % of control
- T/C (dose: 200.0 mg/kg/injection, schedule: Q04DX002 (ip), vehicle: saline with Tween-80): 95 % of control
- T/C (dose: 400.0 mg/kg/injection, schedule: Q04DX002 (ip), vehicle: saline with Tween-80): 94 % of control

Compound: Nc1ccc(S(=O)(=O)Nc2cnc3c(Cl)cccc3n2)cc1
- T/C (dose: 50.0 mg/kg/injection, schedule: Q01DX005 (ip), vehicle: DMSO): 98 % of control and 99 % of control
- T/C [10]: 108 % of control
- T/C (dose: 100.0 mg/kg/injection, schedule: Q01DX005 (ip), vehicle: DMSO): 108 % of control and 116 % of control
- T/C [11]: 106 % of control
- T/C (dose: 200.0 mg/kg/injection, schedule: Q01DX005 (ip), vehicle: DMSO): 121 % of control
- T/C [12]: 111 % of control
- T/C (dose: 400.0 mg/kg/injection, schedule: Q01DX005 (ip), vehicle: DMSO): 120 % of control

Compound: C=CC1O[C@H](C)C[C@H](C)O1 (some centres not stated)
- T/C (dose: 60.0 mg/kg/injection, schedule: Q01DX005 (ip), vehicle: saline): 109 % of control
- T/C (dose: 120.0 mg/kg/injection, schedule: Q01DX005 (ip), vehicle: saline): 100 % of control
- T/C (dose: 240.0 mg/kg/injection, schedule: Q01DX005 (ip), vehicle: saline): 104 % of control

Compound: CN(C)c1ccc(Cc2ccc(N(C)C)nc2)cn1
- T/C [24]: 109 % of control
- T/C [25]: 110 % of control

Compound: Cc1ccnc(Nc2nnc(Nc3cc(C)ccn3)c3ccccc23)c1
- T/C [24]: 100 % of control
- T/C [25]: 97 % of control
- T/C (dose: 200.0 mg/kg/injection, schedule: Q01DX005 (ip), vehicle: saline with Tween-80): 97 % of control
